{"source": "paper PMC9227994", "about": "“Evaluation of the Intestinal Permeability of Rosmarinic Acid from Thunbergia laurifolia Leaf Water Extract in a Caco-2 Cell Model” (Molecules, 2022)", "key": {"[1]": {"assay": "Transepithelial transport (permeability) across Caco-2 cell monolayers, HPLC-PDA, with or without β-glucuronidase/sulfatase deconjugation", "assay_type": "in vitro ADME, human", "details": "human, after β-glucuronidase/sulfatase", "protocol": "(§1) Caco-2 cells (ATCC no. HTB-37) were obtained from the American Type Culture Collection (Rockville, MD, USA) and cultured in DMEM containing […] sodium pyruvate, 20% fetal bovine serum, and 10,000 U/mL penicillin and 10,000 ug/mL streptomycin. Cell culture was maintained at 37 °C in a humidified atmosphere of 5% CO2. On achieving 80–90% confluence, Caco-2 cells were harvested using 0.25% trypsin–EDTA solution and mixed with complete DMEM medium. All cells were used for transport experiments between passages 30 and 40. The integrity of the Caco-2 cell monolayer in the transwell plates was evaluated by measuring transepithelial electrical resistance (TEER) across the monolayers using Millicell-ERS VoltOhm Meter (Millipore, Temecula, CA, USA). […] A (cm^2) is the area of the insert, 1.12 cm^2. […] The culture medium in inserts and plates was changed every 2–3 days for both A and B sides. All cells were used for transport experiments on days 19–21 postseeding. Before starting the transport experiment, the inserts were washed twice and equilibrated with transport buffer (HBSS containing […] HEPES, pH 7.4) for 30 min. Sample solutions of TL extract and RA were prepared and diluted in HBSS to the desired final concentrations. For the transport study of TL extract and RA across Caco-2 cell, sample solutions were added on donor chamber, 400 µL on A side or 1200 µL on B side. The equal volumes of transport buffer were replaced in the receiving chambers. The RA transport in samples was assessed either in A-B or B-A direction across Caco-2 cell monolayers. The plates were incubated at 37 °C for 120 min with gentle shaking at 100 rpm. The solutions of 200 µL on A side and 600 µL on B side were collected at the selected times of 30, 60, 90, and 120 min and immediately replaced with an equal volume of transport buffer to maintain the total volume in receiving chamber. Samples were stored at −80°C until analysis. The amount of transported RA in samples and reference compound was calculated using HPLC system according to the standard curve. β-glucuronidase/sulfatase (Type H-2 from Helix pomatia, 85 units/L of glucuronidase, and 7.5 units/L of sulfatase, Sigma-Aldrich Co., St. Louis, MO, USA) was added to collected samples, which were obtained from B-A solutions at 30, 60, 90, and 120 min, in a ratio of 1:20 and incubated at 37 °C for 4 h to release the parent compounds. These samples from both sides were then injected directly and analyzed for RA by HPLC. The relationship of Q (cumulative permeated amount; μg) versus time, was calculated with the following Equation (3):(3) Q=CnV+∑i=1n−1CiS where Cn is concentration of RA determined at nth sampling interval; V is volume of individual side, ∑i=1n−1Ci is sum of concentration of RA determined at sampling intervals 1 through n − 1, and S is volume of sampling aliquot The Papp (unit: cm/s) was determined and calculated from the amount of compound permeated per time by the following Equation (4):(4) Papp=(dQ/dt/C0×A) where dQ/dt is the steady-state flux of test compound across the cell monolayer in the receiver chamber (µg/min); C0 is the initial concentration in the donor (A or B side) chamber (µg/mL), and A is the surface area of the cell monolayer (cm^2). The membrane area (cm^2) of the insert is 1.12 cm^2. The ER was determined by calculating the ratio of Papp (B-A) versus Papp (A-B) as the following Equation (5):(5) ER=Papp (B-A)/Papp (A-B) where Papp (B-A) is the apparent permeability coefficient value in B-A direction, and Papp (A-B) is the permeability coefficient value in A-B direction. Basolateral recovery (%) was calculated as the amount of test compound transported through the Caco-2 cell monolayer to the B side and remaining on the A side at the end of the experiment divided by the initial amount on the A side."}, "[2]": {"tested_on": "Caco-2 cell monolayers", "assay": "Transepithelial transport (permeability) across Caco-2 cell monolayers, HPLC-PDA, with or without β-glucuronidase/sulfatase deconjugation", "assay_type": "in vitro ADME, human", "details": "for Papp (A-B) relative to B-A direction: after deconjugation; for ER (after Deconjugation): Papp (B-A)/Papp (A-B)", "protocol": "as §1"}, "[3]": {"assay": "Stability of RA in HBSS (pH 7.4) at 37 °C for 2 h", "assay_type": "physicochemical", "details": "HBSS pH 7.4, 37 °C, TL extract 250 µg/mL equivalent to pure RA 3.267 µg/mL", "protocol": "The stability of RA in the TL extract of 250 µg/mL, which was equivalent to pure RA of 3.267 µg/mL in HBSS solution was determined. The TL extracts and RA were dissolved in HBSS solution (pH 7.4) and incubated at 37 °C for 2 h according to the same conditions as in the transport experiment. The contents of the RA as in TL extract and pure compound were measured for stability tests using HPLC. Their RA remains before and after incubation were calculated and expressed as a percentage of RA."}, "[4]": {"assay": "Cytotoxicity test, MTT assay", "assay_type": "cell-based, human", "details": "human, Caco-2 cells, 1000 µg/mL, read-out: cell viability", "protocol": "(§2) Cell viability of TL extracts and RA on Caco-2 cells was determined using MTT following modified assay. Caco-2 cells were seeded in 96-well plates at a density of 2 × 10^4 cells/well and cultured at 37 °C and 5% CO2 for 24 h. TL extracts and RA were dissolved in 50% DMSO and diluted with complete DMEM medium containing 0.1% DMSO in the culture medium. The tested compounds were diluted with medium at a concentration range of 1–1000 µg/mL for 24 h exposure experiment. After removal of the medium, the cells were washed with PBS and incubated with 50 µL of 0.5% MTT solution for 2 h at 37 °C and 5% CO2. A total of 50 μL of DMSO was put into each well to dissolve the formazan crystals. The absorbance was detected using a microplate reader at 590 nm. The percentage of cell viability was calculated according to the following Equation (1):(1) % Cell viability=A (sample)−A (blank)/A (control)−A (blank)×100 where A (sample) is absorbance value of sample; A (blank) is absorbance value of blank, and A (negative control) is absorbance value of control (cells). The experiment was performed in three replicates, and the concentration with a viability of more than 90% was chosen for evaluation in monolayer transport experiments as nontoxic to cells."}, "[5]": {"tested_on": "Caco-2 cells", "assay": "Cytotoxicity test, MTT assay", "assay_type": "cell-based, human", "details": "concentrations below 500 µg/mL, 24 h", "protocol": "as §2"}, "[6]": {"design": "method as in doi:10.1039/C6RA28237G", "details": "rats, cited from earlier work"}, "[7]": {"tested_on": "Caco-2 cells", "design": "method as in PMID 15784988", "details": "cited from earlier work"}, "[8]": {"details": "cited from earlier work"}, "[9]": {"details": "pure RA 3.267 µg/mL, after β-glucuronidase/sulfatase, listed as RA in pure RA"}}, "note": "“Also recorded” adds a separate entry of the source. Like-named read-outs stand apart in the source and are kept apart here.", "data": [{"smiles": "O=C(/C=C/c1ccc(O)c(O)c1)O[C@H](Cc1ccc(O)c(O)c1)C(=O)O", "note": "[RA, Rosmarinic acid]", "values": [{"measurement": "Papp A→B at 120 min, 3.267 µg/mL", "setting": "[1]; Caco-2, pH 7.4, pure RA 3.267 µg/mL, read-out: Papp A-B Direction (after Deconjugation)", "result": "41.2 ± 2.29", "unit": "×10⁻⁶ cm/s"}, {"measurement": "Papp B→A at 120 min, 3.267 µg/mL", "setting": "[1]; Caco-2, pH 7.4, pure RA 3.267 µg/mL, read-out: Papp B-A Direction (after Deconjugation)", "result": "20.4 ± 5.16", "unit": "×10⁻⁶ cm/s"}, {"measurement": "Papp A→B at 120 min, 6.808 µg/mL", "setting": "[1]; Caco-2, pH 7.4, pure RA 6.808 µg/mL, read-out: Papp A-B Direction (after Deconjugation)", "result": "22.9 ± 0.97", "unit": "×10⁻⁶ cm/s"}, {"measurement": "Papp B→A at 120 min, 6.808 µg/mL", "setting": "[1]; Caco-2, pH 7.4, pure RA 6.808 µg/mL, read-out: Papp B-A Direction (after Deconjugation)", "result": "6.2 ± 0.2", "unit": "×10⁻⁶ cm/s"}, {"measurement": "efflux ratio (ER), overall", "setting": "[2]; all concentrations, below 2 taken as no active efflux", "result": "less than 2"}, {"measurement": "Papp (A-B) relative to B-A direction", "setting": "[2]; pure RA 3.267 µg/mL", "result": 2.02, "unit": "fold"}, {"measurement": "ER (after Deconjugation)", "setting": "[2]; pure RA 3.267 µg/mL", "result": 0.5}, {"measurement": "Papp A-B Direction (after Deconjugation)", "setting": "[2]; [9]", "result": "41.2 ± 2.3 × 10^−6 cm/s"}, {"measurement": "Papp B-A Direction (after Deconjugation)", "setting": "[2]; [9]", "result": "20.4 ± 5.2 × 10^−6 cm/s"}, {"measurement": "Papp (A-B) relative to B-A direction", "setting": "[2]; pure RA 6.808 µg/mL", "result": 3.67, "unit": "fold"}, {"measurement": "ER (after Deconjugation)", "setting": "[2]; pure RA 6.808 µg/mL", "result": 0.3}, {"measurement": "Papp A-B Direction (after Deconjugation)", "setting": "[2]; pure RA 6.808 µg/mL, after β-glucuronidase/sulfatase, listed as RA in pure RA", "result": "22.9 ± 1.0 × 10^−6 cm/s"}, {"measurement": "Papp values before deconjugation, A-B and B-A directions", "setting": "[2]; pure RA, both concentrations, both directions", "result": "could not be detected; also recorded: not detectable"}, {"measurement": "RA stability in HBSS", "setting": "[3]", "result": 91, "unit": "%"}, {"measurement": "viability at 24 h, 1000 µg/mL", "setting": "[4]", "result": 85, "unit": "%"}, {"measurement": "Cytotoxicity to Caco-2 cells", "setting": "[5]", "result": "nontoxic"}, {"measurement": "oral absolute BA", "setting": "[6]; single oral dose 12.5 mg/kg", "result": 1.69, "unit": "%"}, {"measurement": "oral absolute BA", "setting": "[6]; single oral dose 25 mg/kg", "result": 1.28, "unit": "%"}, {"measurement": "oral absolute BA", "setting": "[6]; single oral dose 50 mg/kg", "result": 0.91, "unit": "%"}, {"measurement": "RA absorbed in Caco-2 cells", "setting": "[7]", "result": "0.03–0.06%"}, {"measurement": "logarithm of octanol–water partition coefficient (logP)", "setting": "[8]", "result": 1.626}, {"measurement": "partition coefficient (log Kow)", "setting": "[8]", "result": 1.82}]}]}
